Numbers after ± are expanded uncertainties.
Details: 101.33 kPa, Liquid; for viscosity: Falling or rolling sphere viscometry; for speed of sound: Sing-around technique in a fixed-path interferometer; for mass density: Vibrating tube method

SMILES	viscosity (293.15 K) [mPa·s]	speed of sound (293.15 K) [m/s]	mass density (293.15 K) [kg/m3]	viscosity (298.15 K) [mPa·s]	speed of sound (298.15 K) [m/s]	mass density (298.15 K) [kg/m3]	viscosity (303.15 K) [mPa·s]	speed of sound (303.15 K) [m/s]	mass density (303.15 K) [kg/m3]	viscosity (308.15 K) [mPa·s]	speed of sound (308.15 K) [m/s]	mass density (308.15 K) [kg/m3]	viscosity (313.15 K) [mPa·s]	speed of sound (313.15 K) [m/s]	mass density (313.15 K) [kg/m3]	viscosity (318.15 K) [mPa·s]	speed of sound (318.15 K) [m/s]	mass density (318.15 K) [kg/m3]	viscosity (323.15 K) [mPa·s]	speed of sound (323.15 K) [m/s]	other results
CC(=O)[O-].C[NH+]1CCCC1=O [N-methyl-2-oxopyrrolidinium acetate]	2.933 ± 0.037	1491.5 ± 2.3	1050.71 ± 0.94	2.622 ± 0.034	1473.5 ± 2.3	1046.06 ± 0.93	2.364 ± 0.031	1455.1 ± 2.3	1041.42 ± 0.92	2.144 ± 0.028	1436.9 ± 2.3	1036.77 ± 0.91	1.959 ± 0.026	1418.7 ± 2.3	1032.12 ± 0.9	1.799 ± 0.024	1400.6 ± 2.3	1027.46 ± 0.89	1.66 ± 0.023	1382.6 ± 2.3	mass density (323.15 K): 1022.79 ± 0.88 kg/m3; viscosity (328.15 K): 1.54 ± 0.021 mPa·s; speed of sound (328.15 K): 1364.7 ± 2.3 m/s; mass density (328.15 K): 1018.12 ± 0.87 kg/m3; viscosity (333.15 K): 1.435 ± 0.02 mPa·s; speed of sound (333.15 K): 1346.9 ± 2.3 m/s; mass density (333.15 K): 1013.44 ± 0.86 kg/m3; viscosity (338.15 K): 1.344 ± 0.019 mPa·s; speed of sound (338.15 K): 1329.2 ± 2.3 m/s; mass density (338.15 K): 1008.75 ± 0.86 kg/m3; viscosity (343.15 K): 1.264 ± 0.018 mPa·s; speed of sound (343.15 K): 1311.5 ± 2.3 m/s; mass density (343.15 K): 1004.05 ± 0.85 kg/m3
CCCC(=O)[O-].C[NH+]1CCCC1=O [N-methyl-2-oxopyrrolidinium butanoate]	3.996 ± 0.051	1435.6 ± 2.3	1010.56 ± 0.86	3.526 ± 0.045	1418 ± 2.3	1006.11 ± 0.85	3.136 ± 0.04	1400.1 ± 2.3	1001.65 ± 0.84	2.809 ± 0.036	1382.2 ± 2.3	997.18 ± 0.83	2.531 ± 0.033	1364.4 ± 2.3	992.71 ± 0.83	2.295 ± 0.03	1346.7 ± 2.3	988.24 ± 0.82	2.093 ± 0.028	1328.5 ± 2.3	mass density (323.15 K): 983.74 ± 0.82 kg/m3; viscosity (328.15 K): 1.918 ± 0.026 mPa·s; speed of sound (328.15 K): 1311 ± 2.3 m/s; mass density (328.15 K): 979.25 ± 0.81 kg/m3; viscosity (333.15 K): 1.771 ± 0.024 mPa·s; speed of sound (333.15 K): 1293.5 ± 2.3 m/s; mass density (333.15 K): 974.76 ± 0.81 kg/m3; viscosity (338.15 K): 1.639 ± 0.022 mPa·s; speed of sound (338.15 K): 1276.3 ± 2.3 m/s; mass density (338.15 K): 970.26 ± 0.8 kg/m3; viscosity (343.15 K): 1.527 ± 0.021 mPa·s; speed of sound (343.15 K): 1259.1 ± 2.3 m/s; mass density (343.15 K): 965.75 ± 0.8 kg/m3
C[NH+]1CCCC1=O.O=C[O-] [N-methyl-2-oxopyrrolidinium formate]	2.451 ± 0.032	1496 ± 2.3	1076.38 ± 1	2.217 ± 0.029	1478.3 ± 2.3	1071.66 ± 0.99	2.02 ± 0.027	1460.4 ± 2.3	1066.93 ± 0.98	1.85 ± 0.025	1442.5 ± 2.3	1062.2 ± 0.97	1.705 ± 0.023	1424.8 ± 2.3	1057.45 ± 0.96	1.58 ± 0.022	1407.2 ± 2.3	1052.71 ± 0.95	1.472 ± 0.021	1389.7 ± 2.3	mass density (323.15 K): 1047.96 ± 0.94 kg/m3; viscosity (328.15 K): 1.377 ± 0.02 mPa·s; speed of sound (328.15 K): 1372.2 ± 2.3 m/s; mass density (328.15 K): 1043.2 ± 0.93 kg/m3; viscosity (333.15 K): 1.295 ± 0.019 mPa·s; speed of sound (333.15 K): 1354.8 ± 2.3 m/s; mass density (333.15 K): 1038.43 ± 0.92 kg/m3; viscosity (338.15 K): 1.223 ± 0.018 mPa·s; speed of sound (338.15 K): 1337.6 ± 2.3 m/s; mass density (338.15 K): 1033.66 ± 0.91 kg/m3; viscosity (343.15 K): 1.159 ± 0.017 mPa·s; speed of sound (343.15 K): 1320.5 ± 2.3 m/s; mass density (343.15 K): 1028.88 ± 0.9 kg/m3
CCCCCC(=O)[O-].C[NH+]1CCCC1=O [N-methyl-2-oxopyrrolidinium hexanoate]	5.211 ± 0.066	1431.4 ± 2.3	983.01 ± 0.82	4.549 ± 0.058	1414.2 ± 2.3	978.81 ± 0.81	3.998 ± 0.051	1396.7 ± 2.3	974.6 ± 0.81	3.543 ± 0.045	1379.3 ± 2.3	970.39 ± 0.8	3.163 ± 0.04	1362 ± 2.3	966.18 ± 0.8	2.843 ± 0.036	1344.8 ± 2.3	961.96 ± 0.79	2.57 ± 0.033	1327.6 ± 2.3	mass density (323.15 K): 957.74 ± 0.79 kg/m3; viscosity (328.15 K): 2.336 ± 0.03 mPa·s; speed of sound (328.15 K): 1310.6 ± 2.3 m/s; mass density (328.15 K): 953.51 ± 0.78 kg/m3; viscosity (333.15 K): 2.135 ± 0.028 mPa·s; speed of sound (333.15 K): 1293.7 ± 2.3 m/s; mass density (333.15 K): 949.28 ± 0.78 kg/m3; viscosity (338.15 K): 1.96 ± 0.026 mPa·s; speed of sound (338.15 K): 1276.8 ± 2.3 m/s; mass density (338.15 K): 945.04 ± 0.77 kg/m3; viscosity (343.15 K): 1.808 ± 0.024 mPa·s; speed of sound (343.15 K): 1260.2 ± 2.3 m/s; mass density (343.15 K): 940.79 ± 0.77 kg/m3
CCCCC(=O)[O-].C[NH+]1CCCC1=O [N-methyl-2-oxopyrrolidinium pentanoate]	4.448 ± 0.056	1427.7 ± 2.3	994.31 ± 0.83	3.91 ± 0.05	1410.5 ± 2.3	990.01 ± 0.83	3.465 ± 0.044	1393 ± 2.3	985.7 ± 0.82	3.093 ± 0.039	1375.4 ± 2.3	981.38 ± 0.82	2.779 ± 0.036	1358 ± 2.3	977.06 ± 0.81	2.513 ± 0.032	1340.7 ± 2.3	972.73 ± 0.81	2.284 ± 0.03	1323 ± 2.3	mass density (323.15 K): 968.39 ± 0.8 kg/m3; viscosity (328.15 K): 2.087 ± 0.028 mPa·s; speed of sound (328.15 K): 1305.7 ± 2.3 m/s; mass density (328.15 K): 964.05 ± 0.8 kg/m3; viscosity (333.15 K): 1.917 ± 0.026 mPa·s; speed of sound (333.15 K): 1288.7 ± 2.3 m/s; mass density (333.15 K): 959.71 ± 0.79 kg/m3; viscosity (338.15 K): 1.769 ± 0.024 mPa·s; speed of sound (338.15 K): 1271.8 ± 2.3 m/s; mass density (338.15 K): 955.36 ± 0.79 kg/m3; viscosity (343.15 K): 1.64 ± 0.022 mPa·s; speed of sound (343.15 K): 1255 ± 2.3 m/s; mass density (343.15 K): 951.01 ± 0.78 kg/m3
CCC(=O)[O-].C[NH+]1CCCC1=O [N-methyl-2-oxopyrrolidinium propionate]	3.136 ± 0.04	1460.3 ± 2.3	1032.46 ± 0.9	2.801 ± 0.036	1442.6 ± 2.3	1027.86 ± 0.89	2.518 ± 0.032	1424.5 ± 2.3	1023.32 ± 0.89	2.28 ± 0.03	1406.4 ± 2.3	1018.74 ± 0.88	2.075 ± 0.027	1388.4 ± 2.3	1014.16 ± 0.87	1.9 ± 0.025	1370.6 ± 2.3	1009.56 ± 0.86	1.75 ± 0.024	1352.8 ± 2.3	mass density (323.15 K): 1004.97 ± 0.85 kg/m3; viscosity (328.15 K): 1.619 ± 0.022 mPa·s; speed of sound (328.15 K): 1335.1 ± 2.3 m/s; mass density (328.15 K): 1000.36 ± 0.84 kg/m3; viscosity (333.15 K): 1.506 ± 0.021 mPa·s; speed of sound (333.15 K): 1317.5 ± 2.3 m/s; mass density (333.15 K): 995.75 ± 0.83 kg/m3; viscosity (338.15 K): 1.407 ± 0.02 mPa·s; speed of sound (338.15 K): 1300 ± 2.3 m/s; mass density (338.15 K): 991.12 ± 0.83 kg/m3; viscosity (343.15 K): 1.32 ± 0.019 mPa·s; speed of sound (343.15 K): 1282.6 ± 2.3 m/s; mass density (343.15 K): 986.49 ± 0.82 kg/m3
